{"source": "PubChem BioAssay AID2202554", "about": "(NIEHS Division of Translational Toxicology (DTT))", "note": "Results filed as inconclusive are left out. Activity calls are given as the source filed them. How the calls were made is not given here.", "data": [{"tested_on": "S. typhimurium/E. coli reverse mutation, colony counts", "assay": "Bacterial reverse mutation test (aka Ames test) summary data", "procedure,_shortened": "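Revertant colony counts on plates, compared with untreated controls, after about two days of growth. Exposure with or without liver S9 (rat/hamster/mouse), dose range per strain, 20-min 37° C preincubation or direct plate incorporation. Strains: his⁻ Salmonella, trp⁻ E. coli WP2 uvrA pKM101.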", "values": [{"compound": "CC(=O)CC(=O)N(C)C", "outcome": "inactive; negative"}, {"compound": "Nc1ccc(NCCO)c([N+](=O)[O-])c1", "outcome": "active; positive"}, {"compound": "CC1(C)S[C@@H]2[C@H](NC(=O)[C@H](N)c3ccccc3)C(=O)N2[C@H]1C(=O)O", "outcome": "inactive; negative"}, {"compound": "CCCCCCCCCCCCCCCCCC[N+](C)(C)Cc1ccccc1", "outcome": "inactive; negative"}, {"compound": "O=C(Cl)c1ccccc1F", "outcome": "active; positive"}, {"compound": "CC(C)CC(=O)CC(C)C", "outcome": "inactive; negative"}, {"compound": "Nc1ccc2cc(S(=O)(=O)O)c(N=Nc3ccc(-c4ccc(N=Nc5c(S(=O)(=O)O)cc6cc(S(=O)(=O)O)cc(N)c6c5O)cc4)cc3)c(O)c2c1", "outcome": "active; positive"}, {"compound": "CCOC(N)=O", "outcome": "active; positive"}, {"compound": "CN(C)c1nc(N(C)C)nc(N(C)C)n1", "outcome": "inactive; negative"}, {"compound": "O=C1C=CC(=O)C=C1", "outcome": "inactive; negative"}, {"compound": "ClCCl", "outcome": "active; positive"}, {"compound": "Nc1ccc(-c2ccccc2)cc1", "outcome": "active; positive"}, {"compound": "c1ccc2sc(SSc3nc4ccccc4s3)nc2c1", "outcome": "active; positive"}, {"compound": "CCCCCCCCc1ccc(Nc2ccc(CCCCCCCC)cc2)cc1", "outcome": "inactive; negative"}, {"compound": "CCOP(=S)(OCC)SCSC(C)(C)C", "outcome": "inactive; negative"}, {"compound": "[N-]=[N+]=[N-]", "outcome": "active; positive"}, {"compound": "Cc1cc(C)c(C)c(C)c1", "outcome": "inactive; negative"}, {"compound": "CCN(CC)c1ccc(N=O)c(O)c1", "outcome": "inactive; negative"}, {"compound": "CCCCCCCCCCCC(=O)O", "outcome": "inactive; negative"}, {"compound": "O=C(NCNC(=O)NC1C(=O)NC(=O)N1CO)NC1C(=O)NC(=O)N1CO", "note": "(configuration not stated)", "outcome": "active; positive"}, {"compound": "Clc1ccc(C(c2ccc(Cl)cc2)c2ccc(Cl)cc2)cc1", "outcome": "inactive; negative"}, {"compound": "O=c1cc(O)nc[nH]1", "outcome": "inactive; negative"}, {"compound": "O=C=Nc1ccc(N=C=O)cc1", "outcome": "inactive; negative"}, {"compound": "CNC(=O)CSP(=S)(OC)OC", "outcome": "active; positive"}, {"compound": "N#C/C(N)=C(/N)C#N", "outcome": "inactive; negative"}, {"compound": "Nc1cc(C(=O)O)c(O)c(S(=O)(=O)O)c1", "outcome": "inactive; negative"}, {"compound": "ClCCCCl", "outcome": "active; positive"}, {"compound": "CCCCOC(=O)c1ccccc1C(=O)OCc1ccccc1", "outcome": "inactive; negative"}, {"compound": "CCN(C(=O)N(CC)c1ccccc1)c1ccccc1", "outcome": "inactive; negative"}, {"compound": "O=NN(CCO)CCO", "outcome": "active; positive"}, {"compound": "O=Cc1ccccc1C=O", "outcome": "active; positive"}, {"compound": "CC(C)(C)CC(C)(C)c1ccc(OCCOCC[N+](C)(C)Cc2ccccc2)cc1", "outcome": "inactive; negative"}, {"compound": "O=c1[nH]c(=O)n(Cl)c(=O)n1Cl", "outcome": "inactive; negative"}, {"compound": "CC1=C(/C=C/C(C)=C/C=C/C(C)=C/CO)C(C)(C)CCC1", "outcome": "active; weakly positive"}, {"compound": "N#Cc1ccccc1", "outcome": "inactive; negative"}, {"compound": "CCOC(=O)c1ccccc1C(=O)OCC", "outcome": "inactive; negative"}, {"compound": "CCCCC(CC)COCCC#N", "note": "(configuration not stated)", "outcome": "inactive; negative"}, {"compound": "CN(C)N=O", "outcome": "active; positive"}, {"compound": "OCCO", "outcome": "inactive; negative"}, {"compound": "CC(=O)c1ccccn1", "outcome": "inactive; negative"}, {"compound": "COC(C)(C)C", "outcome": "inactive; negative"}, {"compound": "CCCCC(CC)COP(=O)(OCC(CC)CCCC)OCC(CC)CCCC", "note": "(configuration not stated)", "outcome": "inactive; negative"}, {"compound": "Nc1ccc(N=Nc2ccc(-c3ccc(N=Nc4c(S(=O)(=O)O)cc5cc(S(=O)(=O)O)c(N=Nc6ccccc6)c(O)c5c4N)cc3)cc2)c(N)c1", "outcome": "active; positive"}, {"compound": "CN(C)c1ccc(C(=O)c2ccc(N(C)C)cc2)cc1", "outcome": "active; positive"}, {"compound": "O=C1NC(=O)C(c2ccccc2)(c2ccccc2)N1", "outcome": "inactive; negative"}, {"compound": "CC(C)C#N", "outcome": "inactive; negative"}, {"compound": "C1CCCNCC1", "outcome": "inactive; negative"}, {"compound": "CN1CCCC1=O", "outcome": "inactive; negative"}, {"compound": "CC(Cl)Cl", "outcome": "inactive; negative"}, {"compound": "Cc1ccc(C)o1", "outcome": "inactive; negative"}, {"compound": "O=[N+]([O-])c1cccc2cccc([N+](=O)[O-])c12", "outcome": "active; positive"}, {"compound": "C=CC(=O)O", "outcome": "inactive; negative"}, {"compound": "O=C(O)c1ccccc1Cl", "outcome": "inactive; negative"}, {"compound": "Cc1ccccc1C", "outcome": "inactive; negative"}, {"compound": "Oc1c(Br)cc(Br)cc1Br", "outcome": "inactive; negative"}, {"compound": "FC(Cl)(Cl)Cl", "outcome": "inactive; negative"}, {"compound": "O=C(O)/C=C/C(=O)O", "outcome": "inactive; negative"}, {"compound": "C(CCOCC1CO1)COCC1CO1", "note": "(configuration not stated)", "outcome": "active; positive"}, {"compound": "CCCCCN(CCCCC)CCCCC", "outcome": "inactive; negative"}, {"compound": "BrCC(Br)C1CCC(Br)C(Br)C1", "note": "(configuration not stated)", "outcome": "inactive; negative"}, {"compound": "Nc1cc(S(=O)(=O)O)ccc1O", "outcome": "inactive; negative"}, {"compound": "O=C(O)c1cc(=O)[nH]c(=O)[nH]1", "outcome": "inactive; negative"}, {"compound": "C=CCCCCCC", "outcome": "inactive; negative"}, {"compound": "O=Nc1ccc(NO)cc1", "outcome": "active; positive"}, {"compound": "CC(C)COC(=O)c1ccccc1N", "outcome": "inactive; negative"}, {"compound": "CNc1ccc(N(CCO)CCO)cc1[N+](=O)[O-]", "outcome": "active; positive"}, {"compound": "CCC1CO1", "note": "(configuration not stated)", "outcome": "active; positive"}, {"compound": "Nc1cc([N+](=O)[O-])ccc1O", "outcome": "active; positive"}, {"compound": "Nc1ccc(Cc2ccc(N)cc2)cc1", "outcome": "active; positive"}, {"compound": "Oc1c(Br)c(Br)c(Br)c(Br)c1Br", "outcome": "inactive; negative"}, {"compound": "OCCN(CCO)CCO", "outcome": "inactive; negative"}, {"compound": "ClC/C=C/CCl", "outcome": "active; positive"}, {"compound": "COc1ccc(OC)cc1", "outcome": "inactive; negative"}, {"compound": "ClC(Cl)(Cl)C(Cl)(Cl)Cl", "outcome": "inactive; negative"}, {"compound": "C=CC(=O)OCC1CO1", "note": "(configuration not stated)", "outcome": "active; positive"}, {"compound": "Cc1ccncc1", "outcome": "inactive; negative"}, {"compound": "C[C@](N)(Cc1ccc(O)c(O)c1)C(=O)O", "outcome": "inactive; negative"}, {"compound": "Nc1ccc(S(=O)(=O)c2ccc(N)cc2)cc1", "outcome": "inactive; negative"}, {"compound": "OCC(CO)(CCBr)CCBr", "outcome": "active; positive"}, {"compound": "Nc1ccccc1C(=O)OCCc1ccccc1", "outcome": "inactive; negative"}, {"compound": "O=C(O)c1ccc(S(=O)(=O)N(Cl)Cl)cc1", "outcome": "active; positive"}, {"compound": "Cc1ccc(Br)cc1", "outcome": "inactive; negative"}, {"compound": "COP(=S)(OC)SCn1nnc2ccccc2c1=O", "outcome": "active; positive"}, {"compound": "Oc1ccc(/C=C/c2cc(O)cc(O)c2)cc1", "outcome": "inactive; negative"}, {"compound": "O=S(=O)([O-])[O-].[O]=[V+2]", "outcome": "inactive; negative"}, {"compound": "O=C1NC2NC(=O)NC2N1", "note": "(configuration not stated)", "outcome": "inactive; negative"}, {"compound": "Brc1c(Br)c(Br)c(Oc2c(Br)c(Br)c(Br)c(Br)c2Br)c(Br)c1Br", "outcome": "inactive; negative"}, {"compound": "OCCC(F)(F)C(F)(F)C(F)(F)C(F)(F)C(F)(F)C(F)(F)C(F)(F)C(F)(F)C(F)(F)C(F)(F)F", "outcome": "inactive; negative"}, {"compound": "C=C(C)C", "outcome": "inactive; negative"}, {"compound": "C=CCN(CC=C)CC=C", "outcome": "inactive; negative"}, {"compound": "O=S(=O)(O)c1ccc(N=Nc2c(O)ccc3cc(S(=O)(=O)O)ccc23)cc1", "outcome": "inactive; negative"}, {"compound": "CCOC(=O)c1ccccc1N", "outcome": "inactive; negative"}, {"compound": "Nc1ccc(N)cc1", "outcome": "active; positive"}, {"compound": "CC(CC(=O)O)C(=O)O", "note": "(configuration not stated)", "outcome": "inactive; negative"}, {"compound": "Clc1ccc2c(c1)Oc1ccc(Cl)cc1O2", "outcome": "inactive; negative"}, {"compound": "Nc1ccc(Cl)cc1", "outcome": "active; positive"}, {"compound": "Nc1ccccc1[N+](=O)[O-]", "outcome": "inactive; negative"}]}]}
